Measurements taken from patent US20250230193A1, “CYCLIC COMPOUND HAVING SELECTIVE KRAS INHIBITORY EFFECT ON HRAS AND NRAS” (CHUGAI SEIYAKU KABUSHIKI KAISHA, priority 2022, published 2025).
Where a SMILES comes first, the peptide text is derived from it. Bridges are numbered along the chain shown (N, C = ends). [ ]: non-standard residue; d: D form. hPhe(3-Cl-4-CF3) = N[C@@H](CCc1ccc(C(F)(F)F)c(Cl)c1)C(=O)O; NPrPhe(4-CF3) = CCCN[C@@H](Cc1ccc(C(F)(F)F)cc1)C(=O)O; NMeGly(cPent) = CN[C@H](C(=O)O)C1CCCC1; NMeD = CN[C@@H](CC(=O)O)C(=O)O; NMeL = CN[C@@H](CC(C)C)C(=O)O; NMeA = CN[C@@H](C)C(=O)O; Ac5c = NC1(C(=O)O)CCCC1; Aze = O=C(O)[C@@H]1CCN1; Sar = CNCC(=O)O

How the values were obtained:
[1] = target: GDP-bound NRAS wild-type protein (Homo sapiens, UniProt P01111); test: Binding to NRAS by surface plasmon resonance (SPR), Single Cycle Kinetics; conditions: for NRAS/KRAS (ratio of KD value with respect to NRAS to KD value with respect to KRAS): GDP-bound NRAS wild-type vs GDP-bound KRAS wild-type
[2] = target: GDP-bound HRAS wild-type protein (Homo sapiens, UniProt P01112); test: Binding to HRAS by surface plasmon resonance (SPR), Single Cycle Kinetics; conditions: for HRAS/KRAS (ratio of KD value with respect to HRAS to KD value with respect to KRAS): GDP-bound HRAS wild-type vs GDP-bound KRAS wild-type
[3] = KD ratio NRAS/KRAS, class symbols
[4] = KD ratio HRAS/KRAS, class symbols

Chain of GDP-bound HRAS wild-type protein (P01112 whole entry): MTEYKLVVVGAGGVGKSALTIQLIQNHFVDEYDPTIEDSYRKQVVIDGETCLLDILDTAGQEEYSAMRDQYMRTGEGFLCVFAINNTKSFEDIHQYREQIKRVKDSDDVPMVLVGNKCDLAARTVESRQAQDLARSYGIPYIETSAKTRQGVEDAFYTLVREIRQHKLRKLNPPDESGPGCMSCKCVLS
Chain of GDP-bound NRAS wild-type protein (P01111 whole entry): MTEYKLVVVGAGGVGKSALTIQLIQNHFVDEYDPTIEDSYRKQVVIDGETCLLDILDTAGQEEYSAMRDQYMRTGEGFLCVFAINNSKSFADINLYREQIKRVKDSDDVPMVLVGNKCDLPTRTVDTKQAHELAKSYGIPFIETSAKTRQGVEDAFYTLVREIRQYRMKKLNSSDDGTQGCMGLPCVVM

For `CCO[C@@H]1C[C@H]2C(=O)NC3(CCC3)C(=O)N(C)[C@@H](C3CCCC3)C(=O)N(C)[C@H](C(=O)N(C)C)CC(=O)N(C)[C@@H](CC)C(=O)N[C@@H]([C@@H](C)CC)C(=O)N3CCCC[C@H]3C(=O)N(C)[C@H]3C/C=C\CCN(C3=O)[C@@H](Cc3ccc(C(F)(F)F)cc3)C(=O)N(C)CC(=O)N[C@@H](CCc3cc(F)c(C(F)(F)F)c(F)c3)C(=O)N2C1` [PP1058], which “NRAS/KRAS (ratio of KD value with respect to NRAS to KD value with respect to KRAS)” value ([1]; KD ratio, SPR) is on record?
Its value is “A (a compound having 10 or more and less than 20 is denoted as A)”.

What about the “HRAS/KRAS (ratio of KD value with respect to HRAS to KD value with respect to KRAS)” value ([2]; KD ratio, SPR) of the same compound?
The value was “B (a compound having 3 or more and less than 10 is denoted as B)”.

How did the “NRAS/KRAS (ratio of KD value with respect to GDP-bound NRAS wild-type protein to KD value with respect to KRAS)” value ([1]; KD ratio NRAS/KRAS, SPR) turn out when `CC[C@H](C)[C@@H]1NC(=O)[C@H](CC)N(C)C(=O)C[C@@H](C(=O)N(C)C)N(C)C(=O)[C@H](C2CCCC2)N(C)C(=O)C2(CCC2)NC(=O)[C@@H]2CCN2C(=O)[C@H](CCc2cc(F)c(C(F)(F)F)c(F)c2)NC(=O)CN(C)C(=O)[C@H](Cc2ccc(C(F)(F)F)cc2)N2CCCC[C@@H](C2=O)N(C)C(=O)CN(C)C1=O` [PP0657] was run?
Its value is “B (a compound having 3 or more and less than 10 is denoted as B)”.

What about the “HRAS/KRAS (ratio of KD value with respect to GDP-bound HRAS wild-type protein to KD value with respect to KRAS)” value ([2]; KD ratio HRAS/KRAS, SPR) of the same compound?
Its value is “B (a compound having 3 or more and less than 10 is denoted as B)”.

`CCO[C@@H]1C[C@H]2C(=O)NC3(CC(C)(C)C3)C(=O)N(C)[C@@H](C(CC)CC)C(=O)N(C)[C@H](C(=O)N(C)C)CC(=O)N(C)[C@@H](COC)C(=O)N[C@@H]([C@@H](C)CC)C(=O)N(C3CC3)CC(=O)N(C)[C@H]3C/C=C\CCN(C3=O)[C@@H](CC3CCC(F)(F)CC3)C(=O)N(C)CC(=O)N[C@@H](CCc3cc(F)c(C(F)(F)F)c(F)c3)C(=O)N2C1` [PP2568] was tested. Which “NRAS/KRAS (ratio of KD value with respect to GDP-bound NRAS wild-type protein to KD value with respect to KRAS)” value [1, 3] did it give?
Its value is “A (a compound having 10 or more and less than 20 is denoted as A)”.

And the “HRAS/KRAS (ratio of KD value with respect to GDP-bound HRAS wild-type protein to KD value with respect to KRAS)” value [2, 4]?
Its value is “B (a compound having 3 or more and less than 10 is denoted as B)”.

Which “NRAS/KRAS (ratio of KD value with respect to NRAS to KD value with respect to KRAS)” value ([1]; KD ratio, SPR) does the source give for `CC[C@H](C)[C@@H]1NC(=O)[C@H](CC(C)C)N(C)C(=O)C[C@@H](C(=O)N2CCOCC2)N(C)C(=O)[C@H](C2CCCC2)N(C)C(=O)C2(CCC2)NC(=O)[C@@H]2[C@H]3C[C@H]3CN2C(=O)[C@H](CCc2cc(F)c(C(F)(F)F)c(F)c2)NC(=O)CN(C)C(=O)[C@H](Cc2ccc(C(F)(F)F)cc2)N2CCCC[C@@H](C2=O)N(C)C(=O)CN(C)C1=O` [PP0810] here?
The value was “B (a compound having 3 or more and less than 10 is denoted as B)”.

What about the “HRAS/KRAS (ratio of KD value with respect to HRAS to KD value with respect to KRAS)” value ([2]; KD ratio, SPR) of the same compound?
Its value is “B (a compound having 3 or more and less than 10 is denoted as B)”.

`CCC[C@H]1C(=O)N[C@@H]([C@H](C)CC)C(=O)N(C)CC(=O)N(C)[C@H]2C/C=C\CCN(C2=O)[C@@H](Cc2ccc(C)cc2)C(=O)N(C)CC(=O)N[C@@H](CCc2ccc(C(F)(F)F)c(Cl)c2)C(=O)N2C[C@H](OCC)C[C@H]2C(=O)NC2(CC(C)(C)C2)C(=O)N(C)[C@@H](CC(C)(C)C)C(=O)N(C)[C@H](C(=O)N(C)C)CC(=O)N1C` [PP2219] was tested. Which “NRAS/KRAS (ratio of KD value with respect to NRAS to KD value with respect to KRAS)” value ([1]; SPR) did it give?
Its value is “A (a compound having 10 or more and less than 20 is denoted as A)”.

What about the “HRAS/KRAS (ratio of KD value with respect to HRAS to KD value with respect to KRAS)” value ([2]; SPR) of the same compound?
The value was “A (a compound having 10 or more and less than 20 is denoted as A)”.

Which “NRAS/KRAS (ratio of KD for GDP-bound NRAS wild-type to KD for KRAS)” value ([1]; KD ratio NRAS/KRAS, SPR) does the source give for `CCCN1C(=O)[C@@H]2CCN2C(=O)[C@H](C)N(C)C(=O)[C@H]([C@@H](C)CC)NC(=O)[C@H](CC(C)C)N(C)C(=O)C[C@@H](C(=O)N(C)C)N(C)C(=O)[C@H](C2CCCC2)N(C)C(=O)C2(CCCC2)NC(=O)[C@@H]2CCCN2C(=O)[C@H](CCc2ccc(C(F)(F)F)c(Cl)c2)NC(=O)CN(C)C(=O)[C@@H]1Cc1ccc(C(F)(F)F)cc1` [PP0178] ([NMeL]I[NMeA][Aze][NPrPhe(4-CF3)][Sar][hPhe(3-Cl-4-CF3)]P[Ac5c][NMeGly(cPent)][NMeD]-NMe2; lactam N-11) here?
The value was “C (A compound having a KD ratio of 0.1 or more and less than 3 is denoted as C)”.

What about the “HRAS/KRAS (ratio of KD for GDP-bound HRAS wild-type to KD for KRAS)” value ([2]; KD ratio HRAS/KRAS, SPR) of the same compound?
The value was “B (a compound having 3 or more and less than 10 is denoted as B)”.

What does the source list for `CCC(CC)[C@H]1C(=O)N(C)[C@H](C(=O)N(C)C)CC(=O)N(C)[C@@H](COC)C(=O)N[C@@H]([C@@H](C)CC)C(=O)N(C2CC2)CC(=O)N(C)[C@H]2C/C=C\CCN(C2=O)[C@@H](CC2CCC(F)(F)CC2)C(=O)N(C)CC(=O)N[C@@H](CCc2ccc(Cl)c(Cl)c2)C(=O)N2C[C@H](OC(C)C)C[C@H]2C(=O)NC2(CC(C)(C)C2)C(=O)N1C` [PP2525]?
NRAS/KRAS (ratio of KD value with respect to GDP-bound NRAS wild-type protein to KD value with respect to KRAS) [1, 3]: AA (a compound having 20 or more is denoted as AA); HRAS/KRAS (ratio of KD value with respect to GDP-bound HRAS wild-type protein to KD value with respect to KRAS) [2, 4]: A (a compound having 10 or more and less than 20 is denoted as A)

For `CCCO[C@H]1CCN2C(=O)[C@H](CCc3cc(F)c(C(F)(F)F)c(F)c3)NC(=O)CN(C)C(=O)[C@H](Cc3ccc(C(F)(F)F)cc3)N3CCCC[C@@H](C3=O)N(C)C(=O)CN(C)C(=O)[C@H]([C@@H](C)CC)NC(=O)[C@H](CC(C)C)N(C)C(=O)C[C@@H](C(=O)N3CCOCC3)N(C)C(=O)[C@H](C3CCCC3)N(C)C(=O)C3(CCC3)NC(=O)[C@H]12` [PP1077], which “NRAS/KRAS (ratio of KD value with respect to NRAS to KD value with respect to KRAS)” value ([1]; KD ratio, SPR) is on record?
The value was “B (a compound having 3 or more and less than 10 is denoted as B)”.

And the “HRAS/KRAS (ratio of KD value with respect to HRAS to KD value with respect to KRAS)” value ([2]; KD ratio, SPR)?
Its value is “B (a compound having 3 or more and less than 10 is denoted as B)”.
